US20170112861A1, “DRUG DELIVERY ENHANCER COMPRISING SUBSTANCE FOR ACTIVATING LYSOPHOSPHOLIPID RECEPTORS” (Osaka University, priority 2014, published 2017)

System: tumor blood vessels of LLC cell tumors
Assay: Structural changes in tumor blood vessels after LPA administration (anti-CD31 immunostaining, AngioTool)
Format: in vivo
Details: LLC tumor-bearing mice, LPA 3 mg/kg i.p.
Experimental: Lewis lung cancer cell line (hereinafter called LLC cells) was used as the mouse cancer cell line. LLC cells (1×10^6 cells in 100 μL PBS per animal) were subcutaneously injected into C57BL/6 NCrSlc mice aged 8 weeks (females, SLC, Inc.).
The LPA used was 18:1 LPA (Avanti Polar Lipids, Inc.). A 10 mM LPA stock solution was prepared using 50% ethanol and the solution was stored at −30° C. Before use, the LPA stock solution was thawed and homogenized with an ultrasonic cleaner (SND Co., Ltd.) for 1 minute. The solution was diluted in PBS before administration so that the concentration of LPA was 3 mg/kg in 100 μL PBS. The prepared solution was used for LPA administration.
Day 9 post-inoculation of LLC cells, mice that developed a tumor with a volume of 60 to 80 mm^3 (volume=length×width×height×0.5) were selected and used for the test. Four groups each of three mice were provided: control group, LPA/6 hr group, LPA/12 hr group and LPA/24 hr group. LPA was intraperitoneally administered to the mice of the LPA groups at a dose of 3 mg/kg in 100 μL PBS. The tumors were harvested before LPA administration (control group), and at 6, 12 and 24 hours after LPA administration. The tumors were immersed in 4% paraformaldehyde (PFA)/PBS and shaken at 4° C. overnight for fixation. The tumors were washed with cold PBS (4° C.). Washing was continued for 6 hours, and PBS was renewed every 30 minutes. The tumors were immersed in 15% sucrose/PBS and shaken at 4° C. for 3 hours. The tumors were then immersed in 30% sucrose/PBS and shaken at 4° C. for 3 hours. The tumors were embedded in O.C.T compound (Tissue-Tek) and frozen at −80° C. for 3 days or longer.
The tumors embedded in O.C.T. compound were sectioned at 40 μm with a cryostat (Leica). The sections were placed on glass slides, and air-dried for 2 hours with a drier. The sections were encircled with a liquid blocker. […] The vessel length was measured in the photographs using the vascular structure analysis software AngioTool.

Substance: lysophosphatidic acid [LPA]
- structure of tumor blood vessels (vascular network) (12 and 24 hours after administration): the formation of a fine vascular network similar to that in normal tissues was observed
- structure of tumor blood vessels (vascular network) (6 hours after administration): the connection of the blood vessels was observed
- average length of blood vessels (AngioTool) (vs before administration): the length of blood vessels was increased
